# According to patent publication US20210355104A1, “ADENOSINE RECEPTOR BINDING COMPOUNDS” (Nikang Therapeuticsm Inc., priority 2018, published 2021):
# Several values for one entry are separate records, joined by “and”; a condition that tells them apart may be missing. Identical values can stand only once.
# Biological target: Adenosine A2A receptor (Homo sapiens, UniProt P29274)
# Experiment: cAMP assay in 293A cells stably expressing the adenosine A2A receptor (CGS21680 stimulation, HTRF)
# Type: cell-based
# Parameters: expressed in transfected cells; host or cells: 293A cells (Invitrogen, Cat# R705-07) infected with A2A-expressing lentivirus (custom packaged by Biosettia), puromycin selected
# Conditions: 293A cells stably expressing A2A receptor; 0.1% BSA; 1 uM CGS21680 stimulation; replicate values separated by /; read-out: cAMP (nM) 0.1% BSA, 1 uM CGS
# Sequence of Adenosine A2A receptor (P29274 whole entry): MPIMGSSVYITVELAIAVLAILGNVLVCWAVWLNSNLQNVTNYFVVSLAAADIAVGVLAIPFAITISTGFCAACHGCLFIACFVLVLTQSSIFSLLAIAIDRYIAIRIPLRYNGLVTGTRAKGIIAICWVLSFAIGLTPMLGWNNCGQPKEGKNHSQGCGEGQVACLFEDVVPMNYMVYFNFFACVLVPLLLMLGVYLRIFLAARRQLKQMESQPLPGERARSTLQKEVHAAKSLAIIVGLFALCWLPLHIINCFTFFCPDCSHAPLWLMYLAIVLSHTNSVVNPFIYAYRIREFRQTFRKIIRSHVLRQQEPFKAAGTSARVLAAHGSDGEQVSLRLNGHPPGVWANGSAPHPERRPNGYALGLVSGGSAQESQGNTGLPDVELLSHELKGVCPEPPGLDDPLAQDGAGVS
row,Structure (SMILES),IC50
1,"Cc1cc(-c2c(OCc3nc4cccc(C(C)(C)O)c4n3C)nc(N)nc2-c2ccc(F)cc2)cc(C(F)F)n1 [Example 396, 2-(2-(((2-amino-5-(2-(difluoromethyl)-6-methylpyridin-4-yl)-6-(4-fluorophenyl)pyrimidin-4-yl)oxy)methyl)-1-methyl-1H-benzo[d]imidazol-7-yl)propan-2-ol]",869 nM and 634 nM
2,"Cc1cc(-c2c(COc3cccc(C(C)C)n3)nc(N)nc2-c2ccc(F)cc2)cc(C(F)F)n1 [Example 397, 5-(2-(difluoromethyl)-6-methylpyridin-4-yl)-4-(4-fluorophenyl)-6-(((6-isopropylpyridin-2-yl)oxy)methyl)pyrimidin-2-amine]",9.4 nM and 32 nM and 26 nM and 17 nM
3,"Cc1cc(-c2c(OCc3nc(C(C)(C)O)cn3C)nc(N)nc2-c2ccc(F)cc2)cc(C(F)F)n1 [Example 401, 2-(2-(((2-amino-5-(2-(difluoromethyl)-6-methylpyridin-4-yl)-6-(4-fluorophenyl)pyrimidin-4-yl)oxy)methyl)-1-methyl-1H-imidazol-4-yl)propan-2-ol]",318 nM and 246 nM and 259 nM
4,"Cc1cc(-c2c(OCc3nc(C(C)(C)O)cc4ccccc34)nc(N)nc2-c2ccc(F)cc2)cc(C(F)F)n1 [Example 404, 2-(1-(((2-amino-5-(2-(difluoromethyl)-6-methylpyridin-4-yl)-6-(4-fluorophenyl)pyrimidin-4-yl)oxy)methyl)isoquinolin-3-yl)propan-2-ol]",1370 nM and 1800 nM
5,"Cc1cc(-c2c(OCc3nc(OCC(=O)O)cc4ccccc34)nc(N)nc2-c2ccc(F)cc2)cc(C(F)F)n1 [Example 405, 2-((1-(((2-amino-5-(2-(difluoromethyl)-6-methylpyridin-4-yl)-6-(4-fluorophenyl)pyrimidin-4-yl)oxy)methyl)isoquinolin-3-yl)oxy)acetic acid]",619 nM
6,"Cc1cc(-c2c(OCc3nc(NCC(=O)O)cc4ccccc34)nc(N)nc2-c2ccc(F)cc2)cc(C(F)F)n1 [Example 406, (1-(((2-amino-5-(2-(difluoromethyl)-6-methylpyridin-4-yl)-6-(4-fluorophenyl)pyrimidin-4-yl)oxy)methyl)isoquinolin-3-yl)glycine]",719 nM
7,"Cc1cc(-c2c(OCc3cccc(CNS(C)(=O)=O)n3)nc(N)nc2-c2ccc(F)cc2)cc(C(F)F)n1 [Example 409, N-((6-(((2-amino-5-(2-(difluoromethyl)-6-methylpyridin-4-yl)-6-(4-fluorophenyl)pyrimidin-4-yl)oxy)methyl)pyridin-2-yl)methyl) methanesulfonamide]",977 nM and 822 nM
8,"Cc1cc(-c2c(OCc3cccc(NS(C)(=O)=O)n3)nc(N)nc2-c2ccc(F)cc2)cc(C(F)F)n1 [Example 411, N-(6-(((2-amino-5-(2-(difluoromethyl)-6-methylpyridin-4-yl)-6-(4-fluorophenyl)pyrimidin-4-yl)oxy)methyl)pyridin-2-yl)methanesulfonamide]",3190 nM
9,"Cc1cc(-c2c(OCc3nccc4c3nnn4C)nc(N)nc2-c2ccc(F)cc2)cc(C(F)F)n1 [Example 416, 5-(2-(difluoromethyl)-6-methylpyridin-4-yl)-4-(4-fluorophenyl)-6-((1-methyl-1H-[1,2,3]triazolo[4,5-c]pyridin-4-yl)methoxy)pyrimidin-2-amine]",498 nM and 615 nM

# Continued, values first:
row,IC50,Structure (SMILES)
1,1000 nM and 1470 nM and 1440 nM,"Cc1cc(-c2c(OCc3cccc(C(C)(C)c4nn[nH]n4)n3)nc(N)nc2-c2ccc(F)cc2)cc(C(F)F)n1 [Example 400, 4-((6-(2-(2H-tetrazol-5-yl)propan-2-yl)pyridin-2-yl)methoxy)-5-(2-(difluoromethyl)-6-methylpyridin-4-yl)-6-(4-fluorophenyl)pyrimidin-2-amine]"
2,503 nM and 747 nM,"Cc1cc(-c2c(OCc3cccc(CN)n3)nc(N)nc2-c2ccc(F)cc2)cc(C(F)F)n1 [Example 412, 4-((6-(aminomethyl)pyridin-2-yl)methoxy)-5-(2-(difluoromethyl)-6-methylpyridin-4-yl)-6-(4-fluorophenyl)pyrimidin-2-amine]"
3,2050 nM,"Cc1cc(-c2c(OCc3cccc(CNCC(=O)O)n3)nc(N)nc2-c2ccc(F)cc2)cc(C(F)F)n1 [Example 414, ((6-(((2-amino-5-(2-(difluoromethyl)-6-methylpyridin-4-yl)-6-(4-fluorophenyl)pyrimidin-4-yl)oxy)methyl)pyridin-2-yl)methyl)glycine]"

# Same assay, conditions: 293A-A2AR cells, 0.1% BSA, 1 uM CGS; read-out: cAMP (nM) 0.1% BSA, 1 uM CGS
row,Structure (SMILES),IC50
1,"Cc1cc(-c2c(OCc3nc4nc(C(C)(C)C(=O)O)ccc4n3C)nc(N)nc2-c2ccc(F)cc2)cc(C(F)F)n1 [Example 374, 2-(2-(((2-amino-5-(2-(difluoromethyl)-6-methylpyridin-4-yl)-6-(4-fluorophenyl)pyrimidin-4-yl)oxy)methyl)-1-methyl-1H-imidazo[4,5-b]pyridin-5-yl)-2-methylpropanoic acid]",> 25000 nM
2,"Cc1cc(-c2c(OCc3ncc(C(C)(C)O)n3C)nc(N)nc2-c2ccc(F)cc2)cc(C(F)F)n1 [Example 378, 2-(2-(((2-amino-5-(2-(difluoromethyl)-6-methylpyridin-4-yl)-6-(4-fluorophenyl)pyrimidin-4-yl)oxy)methyl)-1-methyl-1H-imidazol-5-yl)propan-2-ol]",430 nM and 173 nM and 247 nM
3,"Cc1cc(-c2c(OCc3ccc4ccccc4n3)nc(N)nc2-c2ccc(F)cc2)cc(C(F)F)n1 [Example 380, 5-(2-(difluoromethyl)-6-methylpyridin-4-yl)-4-(4-fluorophenyl)-6-(quinolin-2-ylmethoxy)pyrimidin-2-amine]",548 nM and 469 nM and 502 nM
4,"Cc1cc(-c2c(OCc3cc4ccccc4cn3)nc(N)nc2-c2ccc(F)cc2)cc(C(F)F)n1 [Example 382, 5-(2-(difluoromethyl)-6-methylpyridin-4-yl)-4-(4-fluorophenyl)-6-(isoquinolin-3-ylmethoxy)pyrimidin-2-amine]",955 nM
5,"Cc1cc(-c2c(OCc3nccn3CCCC(=O)O)nc(N)nc2-c2ccc(F)cc2)cc(C(F)F)n1 [Example 386, 4-(2-(((2-amino-5-(2-(difluoromethyl)-6-methylpyridin-4-yl)-6-(4-fluorophenyl)pyrimidin-4-yl)oxy)methyl)-1H-imidazol-1-yl)butanoic acid]",3820 nM
6,"Cc1cc(-c2c(OCc3cn(C(C)(C)C(=O)O)cn3)nc(N)nc2-c2ccc(F)cc2)cc(C(F)F)n1 [Example 387, 2-(4-(((2-amino-5-(2-(difluoromethyl)-6-methylpyridin-4-yl)-6-(4-fluorophenyl)pyrimidin-4-yl)oxy)methyl)-1H-imidazol-1-yl)-2-methylpropanoic acid]",16300 nM
7,"Cc1cc(-c2c(OCc3ccn(C(C)(C)C(=O)O)n3)nc(N)nc2-c2ccc(F)cc2)cc(C(F)F)n1 [Example 388, 2-(3-(((2-amino-5-(2-(difluoromethyl)-6-methylpyridin-4-yl)-6-(4-fluorophenyl)pyrimidin-4-yl)oxy)methyl)-1H-pyrazol-1-yl)-2-methylpropanoic acid]",7660 nM
8,"Cc1cc(-c2c(OCc3ncc(C(C)(O)C(=O)O)n3C)nc(N)nc2-c2ccc(F)cc2)cc(C(F)F)n1 (stereo not shown) [Example 395, 2-(2-(((2-amino-5-(2-(difluoromethyl)-6-methylpyridin-4-yl)-6-(4-fluorophenyl)pyrimidin-4-yl)oxy)methyl)-1-methyl-1H-imidazol-5-yl)-2-hydroxypropanoic acid]",> 50000 nM

# More lines, now with the values ahead:
row,IC50,Structure (SMILES)
1,17600 nM and 23300 nM,"Cc1cc(-c2c(OCc3ccc(F)c(C(C)(C)C(=O)O)n3)nc(N)nc2-c2ccc(F)cc2)cc(C(F)F)n1 [Example 375, 2-(6-(((2-amino-5-(2-(difluoromethyl)-6-methylpyridin-4-yl)-6-(4-fluorophenyl)pyrimidin-4-yl)oxy)methyl)-3-fluoropyridin-2-yl)-2-methylpropanoic acid]"
2,133 nM and 209 nM and 375 nM and 142 nM and 48 nM,Cc1cc(-c2c(OCc3cccc(N)n3)nc(N)nc2-c2ccc(F)cc2)cc(C(F)F)n1 [Example 376]
3,21100 nM,"Cc1cc(-c2c(OCc3ccc(C)c(C(C)(C)C(=O)O)n3)nc(N)nc2-c2ccc(F)cc2)cc(C(F)F)n1 [Example 377, 2-(6-(((2-amino-5-(2-(difluoromethyl)-6-methylpyridin-4-yl)-6-(4-fluorophenyl)pyrimidin-4-yl)oxy)methyl)-3-methylpyridin-2-yl)-2-methylpropanoic acid]"
4,1010 nM,"Cc1cc(-c2c(OCc3cccc(C(C)(C)N)n3)nc(N)nc2-c2ccc(F)cc2)cc(C(F)F)n1 [Example 383, 4-((6-(2-aminopropan-2-yl)pyridin-2-yl)methoxy)-5-(2-(difluoromethyl)-6-methylpyridin-4-yl)-6-(4-fluorophenyl)pyrimidin-2-amine]"
5,15400 nM,"Cc1cc(-c2c(OCc3cccc(C#CC(C)(C)C(=O)O)n3)nc(N)nc2-c2ccc(F)cc2)cc(C(F)F)n1 [Example 384, 4-(6-(((2-amino-5-(2-(difluoromethyl)-6-methylpyridin-4-yl)-6-(4-fluorophenyl)pyrimidin-4-yl)oxy)methyl)pyridin-2-yl)-2,2-dimethylbut-3-ynoic acid]"
6,85 nM and 98 nM and 51 nM,"CCC(C#N)(CC)c1cccc(COc2nc(N)nc(-c3ccc(F)cc3)c2-c2cc(C)nc(C(F)F)c2)n1 [Example 390, 2-(6-(((2-amino-5-(2-(difluoromethyl)-6-methylpyridin-4-yl)-6-(4-fluorophenyl)pyrimidin-4-yl)oxy)methyl)pyridin-2-yl)-2-ethylbutanenitrile]"
7,628 nM and 597 nM and 892 nM and 826 nM and 566 nM and 686 nM,"Cc1cc(-c2c(OCc3cccc(C(C)(C)NCC(=O)O)n3)nc(N)nc2-c2ccc(F)cc2)cc(C(F)F)n1 [Example 393, (2-(6-(((2-amino-5-(2-(difluoromethyl)-6-methylpyridin-4-yl)-6-(4-fluorophenyl)pyrimidin-4-yl)oxy)methyl)pyridin-2-yl)propan-2-yl)glycine]"
8,865 nM and 496 nM,"Cc1cc(-c2c(OCc3cccc(C(C)(O)C(=O)O)n3)nc(N)nc2-c2ccc(F)cc2)cc(C(F)F)n1 (stereo not shown) [Example 394, 2-(6-(((2-amino-5-(2-(difluoromethyl)-6-methylpyridin-4-yl)-6-(4-fluorophenyl)pyrimidin-4-yl)oxy)methyl)pyridin-2-yl)-2-hydroxypropanoic acid]"
